Test results as given in patent publication US20220251036A1, “DIFLUOROHALOALLYLAMINE SULFONE DERIVATIVE INHIBITORS OF LYSYL OXIDASES, METHODS OF PREPARATION, AND USES THEREOF” (PHARMAXIS LTD., priority 2019, published 2022).
Where a name gives a salt, the structure may show the parent alone.

Assays:
[1] = target: T1, Bovine LOX (Bos taurus, UniProt P33072); assay: LOX inhibition, Amplex Red oxidation assay; format: biochemical; conditions: for IC50: incubation with enzyme 30 min at 37° C, read-out: Bovine LOX Activity IC50
T1 sequence (P33072 170-418): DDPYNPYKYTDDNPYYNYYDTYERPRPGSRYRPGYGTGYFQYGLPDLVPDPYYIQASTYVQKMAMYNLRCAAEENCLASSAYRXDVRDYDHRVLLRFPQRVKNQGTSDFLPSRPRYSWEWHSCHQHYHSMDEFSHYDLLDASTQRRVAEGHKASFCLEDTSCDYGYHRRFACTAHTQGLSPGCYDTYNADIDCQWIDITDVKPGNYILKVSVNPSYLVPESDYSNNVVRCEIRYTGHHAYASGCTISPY
Experimental: (§1) LOX and LOXL protein family members can be acquired as recombinant active proteins from commercial sources, or extracted from animal tissues like bovine aorta, tendons, pig skin; or prepared from cell cultures. […] The assay was developed using either 384 or 96 well format. Briefly, in a standard black, clear bottom 384 well plate assay 25 μL of a dilution of any of the isoenzymes and orthologues in 1.2 M urea, 50 mM sodium borate buffer (pH 8.2) were added into each well in the presence of 1 μM mofegiline and 0.5 mM pargyline (to inhibit SSAO and MAO-B and MAO-A, respectively; not necessary if the enzyme is from a recombinant or purified form). Test compounds were dissolved in DMSO and tested in a Concentration Response Curve (CRC) with 11 data points, typically in the micromolar or nanomolar range after incubation with the enzyme for 30 min at 37° C. 25 μL of a reaction mixture containing twice the KM concentration of putrescine (Sigma Aldrich, e.g. 20 mM for LOX and LOXL1 or 10 mM for LOXL2 and 4 mM for LOXL3 and LOXL4), 120 μM Amplex Red (Sigma Aldrich) and 1.5 U/mL horseradish peroxidase (Sigma Aldrich) prepared in 1.2 M urea, 50 mM sodium borate buffer (pH 8.2) were then added to the corresponding wells. The above volumes were doubled in the case of 96 wells plate. The fluorescence (RFU) was read every 2.5 min for 30 min at […] 37° C., excitation 565 nm and emission 590 (Optima; BMG labtech). The slope of the kinetics for each well was calculated using MARS data analysis software (BMG labtech) and this value was used to deduce the IC50 value (Dotmatics). The ability of the inventive compounds to inhibit the amine oxidase activity of LOX and other family members is shown in Table 4.

[2] = target: T2, Human recombinant LOXL2 (Homo sapiens, UniProt Q9Y4K0); assay: LOXL2 inhibition, Amplex Red oxidation assay; format: biochemical; conditions: incubation with enzyme 30 min at 37° C; read-out: Human recombinant LOXL2 Activity IC50
T2 sequence (Q9Y4K0 26-774): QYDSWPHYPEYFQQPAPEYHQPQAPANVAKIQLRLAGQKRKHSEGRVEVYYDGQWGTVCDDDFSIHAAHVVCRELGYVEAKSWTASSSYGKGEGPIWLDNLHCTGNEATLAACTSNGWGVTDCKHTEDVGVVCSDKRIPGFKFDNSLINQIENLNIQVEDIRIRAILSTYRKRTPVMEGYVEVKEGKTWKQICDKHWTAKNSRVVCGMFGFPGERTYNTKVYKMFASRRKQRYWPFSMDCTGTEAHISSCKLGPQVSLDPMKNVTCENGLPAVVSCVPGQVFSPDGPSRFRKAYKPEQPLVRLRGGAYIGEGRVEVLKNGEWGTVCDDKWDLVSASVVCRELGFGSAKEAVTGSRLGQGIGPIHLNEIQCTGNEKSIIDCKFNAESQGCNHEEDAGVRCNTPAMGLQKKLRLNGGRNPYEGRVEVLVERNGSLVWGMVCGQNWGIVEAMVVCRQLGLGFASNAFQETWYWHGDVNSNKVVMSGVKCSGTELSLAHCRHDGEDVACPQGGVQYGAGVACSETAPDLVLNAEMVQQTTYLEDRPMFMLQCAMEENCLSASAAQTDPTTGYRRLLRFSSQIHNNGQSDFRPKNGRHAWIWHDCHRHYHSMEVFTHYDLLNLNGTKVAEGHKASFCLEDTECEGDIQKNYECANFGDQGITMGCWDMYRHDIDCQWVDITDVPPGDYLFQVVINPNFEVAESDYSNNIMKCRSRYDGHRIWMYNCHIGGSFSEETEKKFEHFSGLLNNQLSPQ
Experimental: as §1

## NC/C=C(/F)C(F)(F)S(=O)(=O)c1ccccc1 [Compound 1(E)]
[1]; LOX / LOXL preparations, compared with Compound 1
  inhibitory activity (in words): significantly reduced inhibitory activity
[1]
  IC50: 23.1 µM
[2]
  IC50: 2.1 µM

## CS(=O)(=O)c1cccc(S(=O)(=O)C(F)(F)/C(F)=C/CN)c1 [Compound 3, (Z)-3,4,4-trifluoro-4-((3-(methylsulfonyl)phenyl)sulfonyl)but-2-en-1-amine]
[1]
  IC50: 11.1 µM
[2]
  IC50: 0.7 µM

## NC/C=C(\F)C(F)(F)S(=O)(=O)c1ccccc1N1CCS(=O)(=O)CC1 [Compound 7, (Z)-4-(2-((4-amino-1,1,2--trifluorobut-2-en-1-yl)sulfonyl)phenyl)thiomorpholine 1,1-dioxide, hydrochloride]
[1]
  IC50: 22.8 µM
[2]
  IC50: 2 µM

## NC/C=C(\F)C(F)(F)S(=O)(=O)c1ccccc1O [Compound 11, (Z)-2-((4-amino-1,1,2-trifluorobut-2-en-1-yl)sulfonyl)phenol]
[1]
  IC50: > 30 µM
[2]
  IC50: 1.7 µM

## Cc1cccc(S(=O)(=O)C(F)(F)/C(F)=C/CN)c1 [Compound 13, (Z)-3,4,4-trifluoro-4-(m-tolylsulfonyl)but-2-en-1-amine]
[1]
  IC50: 3.9 µM
[2]
  IC50: 0.5 µM

## Cc1occc1S(=O)(=O)C(F)(F)/C(F)=C/CN [Compound 15, (Z)-3,4,4-trifluoro-4-((2-methylfuran-3-yl)sulfonyl)but-2-en-1-amine]
[1]
  IC50: 5.9 µM
[2]
  IC50: 0.7 µM

## [2H]c1c([2H])c([2H])c(S(=O)(=O)C(F)(F)/C(F)=C/CN)c([2H])c1[2H] [Compound 18, (Z)-3,4,4-trifluoro-4-((phenyl-d5)sulfonyl)but-2-en-1-amine]
[1]
  IC50: 3.6 µM
[2]
  IC50: 0.7 µM

## CS(=O)(=O)c1cccc(Oc2cccc(S(=O)(=O)C(F)(F)/C(F)=C/CN)c2)c1 [Compound 20, (Z)-3,4,4-trifluoro-4-((3-(3-(methylsulfonyl)phenoxy)phenyl)sulfonyl)but-2-en-1-amine]
[1]
  IC50: 4.4 µM
